The target of data set [1] is 5-hydroxytryptamine receptor 7 (Homo sapiens, UniProt P34969). In words: biochemical. The class given is cell-based, CHO-K1.
Data set [2] concerns the target 5-hydroxytryptamine receptor 2A (Homo sapiens, UniProt P28223). The experiment in a line: biochemical. The class given is cell-based, CHO-K1.
Data set [3] has as its target T1, Muscarinic acetylcholine receptor M1 (Homo sapiens) (UniProt P11229).
T1 sequence (whole entry): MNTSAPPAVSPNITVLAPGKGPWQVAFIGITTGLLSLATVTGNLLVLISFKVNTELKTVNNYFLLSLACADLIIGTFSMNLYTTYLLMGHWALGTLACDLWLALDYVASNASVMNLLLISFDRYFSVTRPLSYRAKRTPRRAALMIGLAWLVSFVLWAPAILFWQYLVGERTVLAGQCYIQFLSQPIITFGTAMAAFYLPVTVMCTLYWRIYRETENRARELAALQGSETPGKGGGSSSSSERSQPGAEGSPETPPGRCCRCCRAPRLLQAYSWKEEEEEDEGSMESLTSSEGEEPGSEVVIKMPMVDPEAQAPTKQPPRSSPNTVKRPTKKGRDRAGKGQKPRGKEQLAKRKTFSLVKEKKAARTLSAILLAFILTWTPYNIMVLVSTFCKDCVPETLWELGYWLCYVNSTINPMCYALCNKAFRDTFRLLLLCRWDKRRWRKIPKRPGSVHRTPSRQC
In words: Displacement of [3H]pirenzepine from human recombinant M1 receptor expressed in CHO cells at 1 uM. The class given is cell-based.

The target of data set [4] is hERG (KCNH2) potassium channel (Homo sapiens, UniProt Q12809). In words: in vitro. The note with it: CHO cells expressing human cloned ERG.
hERG (KCNH2) potassium channel, sequence (Q12809 whole entry): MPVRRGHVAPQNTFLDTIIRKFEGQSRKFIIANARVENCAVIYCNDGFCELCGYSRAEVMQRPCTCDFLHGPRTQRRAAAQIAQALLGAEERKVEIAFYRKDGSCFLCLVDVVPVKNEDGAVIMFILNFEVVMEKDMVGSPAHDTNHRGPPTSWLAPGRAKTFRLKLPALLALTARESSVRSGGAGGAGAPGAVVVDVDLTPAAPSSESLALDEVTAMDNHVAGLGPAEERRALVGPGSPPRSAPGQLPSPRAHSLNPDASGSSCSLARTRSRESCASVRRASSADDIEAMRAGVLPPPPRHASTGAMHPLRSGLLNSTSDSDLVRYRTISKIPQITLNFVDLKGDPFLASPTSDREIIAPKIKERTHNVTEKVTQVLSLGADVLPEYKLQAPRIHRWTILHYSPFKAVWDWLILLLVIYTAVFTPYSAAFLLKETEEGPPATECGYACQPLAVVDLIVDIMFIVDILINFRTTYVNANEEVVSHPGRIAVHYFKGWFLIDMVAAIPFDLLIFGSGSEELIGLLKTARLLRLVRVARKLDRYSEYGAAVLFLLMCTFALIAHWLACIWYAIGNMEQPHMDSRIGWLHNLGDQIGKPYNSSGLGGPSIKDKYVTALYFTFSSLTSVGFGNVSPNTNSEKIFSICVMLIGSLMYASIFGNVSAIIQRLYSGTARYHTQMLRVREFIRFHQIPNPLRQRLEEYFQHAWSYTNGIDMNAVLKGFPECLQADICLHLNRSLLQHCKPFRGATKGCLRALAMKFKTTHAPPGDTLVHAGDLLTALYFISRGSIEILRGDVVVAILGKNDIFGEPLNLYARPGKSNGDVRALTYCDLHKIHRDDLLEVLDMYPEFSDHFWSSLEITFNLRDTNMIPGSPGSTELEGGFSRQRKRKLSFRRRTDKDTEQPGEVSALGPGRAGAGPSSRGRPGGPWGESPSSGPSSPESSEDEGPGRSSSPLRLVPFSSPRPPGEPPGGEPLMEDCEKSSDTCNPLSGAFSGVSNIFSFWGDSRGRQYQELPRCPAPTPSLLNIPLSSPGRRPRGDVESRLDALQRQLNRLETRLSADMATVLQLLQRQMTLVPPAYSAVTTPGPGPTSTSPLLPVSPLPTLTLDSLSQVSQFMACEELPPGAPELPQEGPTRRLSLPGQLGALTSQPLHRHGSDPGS
Data set [5] has as its target 5-hydroxytryptamine receptor 6 (Homo sapiens, UniProt P50406). In words: biochemical.
The target of another data set is D(2) dopamine receptor (Homo sapiens, UniProt P14416). The experiment in a line: biochemical.
D(2) dopamine receptor, sequence (P14416 whole entry): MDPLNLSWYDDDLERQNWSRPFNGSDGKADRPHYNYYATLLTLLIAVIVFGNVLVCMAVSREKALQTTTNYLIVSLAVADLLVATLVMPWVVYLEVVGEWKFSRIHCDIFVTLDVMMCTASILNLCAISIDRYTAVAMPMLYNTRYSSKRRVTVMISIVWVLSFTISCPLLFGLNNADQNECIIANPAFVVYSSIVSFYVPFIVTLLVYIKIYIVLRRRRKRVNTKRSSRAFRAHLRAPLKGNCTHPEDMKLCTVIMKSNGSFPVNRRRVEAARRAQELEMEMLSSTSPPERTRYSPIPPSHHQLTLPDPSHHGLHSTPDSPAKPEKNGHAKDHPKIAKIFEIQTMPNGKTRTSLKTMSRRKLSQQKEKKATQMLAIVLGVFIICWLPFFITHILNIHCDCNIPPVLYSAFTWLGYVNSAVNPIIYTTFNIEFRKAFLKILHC

5-hydroxytryptamine receptor 6, sequence (P50406 whole entry): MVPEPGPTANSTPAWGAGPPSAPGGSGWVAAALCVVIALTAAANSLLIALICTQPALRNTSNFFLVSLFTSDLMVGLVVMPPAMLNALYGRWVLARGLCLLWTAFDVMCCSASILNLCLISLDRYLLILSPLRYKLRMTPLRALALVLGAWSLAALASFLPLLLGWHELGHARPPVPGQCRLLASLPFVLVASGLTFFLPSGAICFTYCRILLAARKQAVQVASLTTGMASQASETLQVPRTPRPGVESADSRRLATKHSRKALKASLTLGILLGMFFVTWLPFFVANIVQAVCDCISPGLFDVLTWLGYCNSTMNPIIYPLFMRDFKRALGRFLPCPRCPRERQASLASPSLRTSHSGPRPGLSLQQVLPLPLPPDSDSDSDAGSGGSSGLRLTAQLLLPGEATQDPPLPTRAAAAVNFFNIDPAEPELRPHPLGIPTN
5-hydroxytryptamine receptor 7, sequence (P34969 whole entry): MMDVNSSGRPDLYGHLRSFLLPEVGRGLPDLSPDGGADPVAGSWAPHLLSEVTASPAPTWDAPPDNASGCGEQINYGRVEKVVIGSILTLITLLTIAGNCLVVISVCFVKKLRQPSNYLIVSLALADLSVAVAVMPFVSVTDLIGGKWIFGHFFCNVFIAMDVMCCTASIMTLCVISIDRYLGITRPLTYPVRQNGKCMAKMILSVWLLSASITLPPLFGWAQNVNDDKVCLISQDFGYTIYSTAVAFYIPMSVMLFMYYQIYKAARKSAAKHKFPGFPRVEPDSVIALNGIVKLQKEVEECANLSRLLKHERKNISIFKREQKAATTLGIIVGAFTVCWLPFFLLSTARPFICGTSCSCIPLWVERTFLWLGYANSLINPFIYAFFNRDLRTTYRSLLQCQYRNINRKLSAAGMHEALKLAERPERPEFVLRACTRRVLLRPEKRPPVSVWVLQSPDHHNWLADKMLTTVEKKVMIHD
5-hydroxytryptamine receptor 2A, sequence (P28223 whole entry): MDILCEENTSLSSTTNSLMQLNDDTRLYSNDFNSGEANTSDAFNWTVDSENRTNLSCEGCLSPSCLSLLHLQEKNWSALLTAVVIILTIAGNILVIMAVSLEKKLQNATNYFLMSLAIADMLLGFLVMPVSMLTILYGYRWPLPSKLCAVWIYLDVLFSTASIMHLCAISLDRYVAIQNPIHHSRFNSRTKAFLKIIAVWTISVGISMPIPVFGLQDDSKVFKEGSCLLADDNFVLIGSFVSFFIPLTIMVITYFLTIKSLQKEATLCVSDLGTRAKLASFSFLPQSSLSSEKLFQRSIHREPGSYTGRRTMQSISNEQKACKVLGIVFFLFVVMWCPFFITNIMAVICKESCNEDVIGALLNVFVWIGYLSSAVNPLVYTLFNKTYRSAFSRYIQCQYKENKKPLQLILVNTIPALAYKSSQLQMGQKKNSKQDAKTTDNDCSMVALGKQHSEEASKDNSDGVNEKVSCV

Turning to `O=S(=O)(NCCCCN1CCN(c2nsc3ccccc23)CC1)c1cccs1`, the Ki in data set [1] amounted to 3.2 nM; in data set [2] it was 5.5 nM; in data set [5] it was 42 nM; at D(2) dopamine receptor it was 3.2 nM. Moreover, the inhibition in data set [3] came out at 1%. In data set [4], the inhibition at 1 µM came out at 40%.
With `O=S(=O)(NCCCCN1CCN(c2noc3ccccc23)CC1)c1cc2ccc(Cl)cc2s1`, the inhibition constant (Ki) in data set [1] was found to be 5.1 nM; in data set [2] it was 11 nM; in data set [5] it was 46 nM; at D(2) dopamine receptor it was 54 nM. In addition, the inhibition in data set [3] was -1%. For the same compound, the inhibition at 1 µM in data set [4] was 15%.
As for `Cc1cccc(S(=O)(=O)NCCCCN2CCN(c3noc4ccccc34)CC2)c1`, the inhibition constant (Ki) in data set [1] came to 1.1 nM; in data set [2] it was 26 nM; in data set [5], 87 nM; at D(2) dopamine receptor, 44 nM. Further, in data set [3], the inhibition is -3%. The inhibition at 1 µM in data set [4] turned out to be 27%.
As for `O=S(=O)(NCCCN1CCC(c2noc3cc(F)ccc23)CC1)c1ccc2cc(Cl)ccc2c1`, the inhibition constant (Ki) in data set [1] was determined as 18 nM; in data set [2], 3.1 nM; in data set [5] it was 26 nM; on D(2) dopamine receptor, 23 nM. In data set [3], the inhibition is -7%. The inhibition at 1 µM in data set [4] came to 28%.
As to `O=S(=O)(NCCN1CCC(c2noc3cc(F)ccc23)CC1)c1cccc2ccccc12`, the inhibition constant (Ki) stood at 1.3 nM in data set [1], 0.7 nM in data set [2], 250 nM in data set [5] and 9.1 nM at D(2) dopamine receptor. Further, the inhibition in data set [3] is -8%. In addition, in data set [4], the inhibition at 1 µM was found to be 0%.
`Cc1cccc(S(=O)(=O)NCCN2CCC(c3noc4cc(F)ccc34)CC2)c1`: the Ki in data set [1] turned out to be 1.1 nM; in data set [2], 3.5 nM; in data set [5], 210 nM; on D(2) dopamine receptor, 20 nM. Besides, the inhibition in data set [3] worked out at 0%. Moreover, in data set [4], the inhibition at 1 µM stood at 42%.
As for `O=S(=O)(NCCCCN1CCN(c2noc3ccccc23)CC1)c1cc2ccccc2s1`, the inhibitory constant (Ki) turned out to be 180 nM in data set [1], 190 nM in data set [2], 1100 nM in data set [5] and 1300 nM at D(2) dopamine receptor. Besides, the inhibition in data set [3] turned out to be 2%. Also, the inhibition at 1 µM in data set [4] was 14%.
In the case of `Cc1cccc(S(=O)(=O)NCCCCN2CCN(c3nsc4ccccc34)CC2)c1`, the inhibition constant Ki was determined as 1.6 nM in data set [1], 0.4 nM in data set [2], 100 nM in data set [5] and 8.7 nM on D(2) dopamine receptor. For the same compound, in data set [3], the inhibition is -4%. Also, the inhibition at 1 µM in data set [4] is 17%.
With `O=S(=O)(NCCCN1CCN(c2noc3ccccc23)CC1)c1cc2ccccc2s1`, the Ki in data set [1] came out at 150 nM; in data set [2] it was 410 nM; in data set [5], 35 nM; on D(2) dopamine receptor, 15 nM. Also, the inhibition in data set [3] stood at 14%. In data set [4], the inhibition at 1 µM stood at 21%.
For `O=S(=O)(NCCCN1CCN(c2noc3ccccc23)CC1)c1ccc2ccccc2c1`, the Ki stood at 120 nM in data set [1], 110 nM in data set [2], 1600 nM in data set [5] and 7200 nM at D(2) dopamine receptor. In data set [3], the inhibition is -5%. The inhibition at 1 µM in data set [4] is 29%.
`O=S(=O)(NCCCCN1CCN(c2nsc3ccccc23)CC1)c1cnc2ccccn12`: the inhibitory constant (Ki) in data set [1] stood at 4.1 nM; in data set [2], 8.1 nM; in data set [5] it was 140 nM; on D(2) dopamine receptor, 46 nM. The inhibition in data set [3] is 6%. In data set [4], the inhibition at 1 µM came out at 17%.
In the case of `O=S(=O)(NCCCCN1CCN(c2noc3ccccc23)CC1)c1cccs1`, the Ki came out at 67 nM in data set [1], 2700 nM in data set [2], 5200 nM in data set [5] and 5.3 nM at D(2) dopamine receptor. In data set [3], the inhibition came out at 3%. Moreover, the inhibition at 1 µM in data set [4] stood at 39%.
`O=S(=O)(NCCCN1CCN(c2noc3ccccc23)CC1)c1ccc2cc(Cl)ccc2c1`: the Ki is 2500 nM in data set [1], over 10000 nM in data set [2], 2300 nM in data set [5] and over 10000 nM on D(2) dopamine receptor. Besides, the inhibition in data set [3] was found to be 3%. In addition, the inhibition at 1 µM in data set [4] was determined as 14%.
Regarding `O=S(=O)(NCCCCN1CCN(c2nsc3ccccc23)CC1)c1cc2ccc(Cl)cc2s1`, the Ki in data set [1] worked out at 9 nM; in data set [2], 6.5 nM; in data set [5], 45 nM; at D(2) dopamine receptor it was 45 nM. Further, the inhibition in data set [3] turned out to be 2%. For the same compound, the inhibition at 1 µM in data set [4] came to 5%.
On to `O=S(=O)(NCCCN1CCN(c2nsc3ccccc23)CC1)c1ccc2cc(Cl)ccc2c1`, for which the Ki in data set [1] is 38 nM; in data set [2] it was 13 nM; in data set [5] it was 100 nM; at D(2) dopamine receptor it was 6 nM. Besides, the inhibition in data set [3] is -7%. Besides, in data set [4], the inhibition at 1 µM was 7%.
Take `O=S(=O)(NCCCCN1CCC(c2noc3cc(F)ccc23)CC1)c1ccc(OC(F)(F)F)cc1`: the inhibitory constant (Ki) was 15 nM in data set [1], 3.6 nM in data set [2], 23 nM in data set [5] and 64 nM on D(2) dopamine receptor. In data set [3], the inhibition is -6%. Further, in data set [4], the inhibition at 1 µM stood at 73%.
`O=S(=O)(NCCCCN1CCC(c2noc3cc(F)ccc23)CC1)c1cnc2ccccn12`: the Ki is 14 nM in data set [1], 9.5 nM in data set [2], 100 nM in data set [5] and over 1000 nM at D(2) dopamine receptor. Moreover, the inhibition in data set [3] is 37%. The inhibition at 1 µM in data set [4] came to 47%.
Take `O=S(=O)(NCCCN1CCN(c2noc3ccccc23)CC1)c1ccc(F)c(Cl)c1`: the Ki is 9.9 nM in data set [1], 98 nM in data set [2], 330 nM in data set [5] and over 10000 nM at D(2) dopamine receptor. The inhibition in data set [3] came to 2%. Also, the inhibition at 1 µM in data set [4] came to 33%.
For `O=S(=O)(NCCCCN1CCN(c2noc3ccccc23)CC1)c1ccc(F)c(Cl)c1`, the inhibition constant Ki in data set [1] worked out at 0.1 nM; in data set [2] it was 17 nM; in data set [5], 27 nM; on D(2) dopamine receptor, 77 nM. In data set [3], the inhibition amounted to 6%. The inhibition at 1 µM in data set [4] is 45%.
For the compound `O=S(=O)(NCCCCN1CCC(c2noc3cc(F)ccc23)CC1)c1ccc(Cl)c(Cl)c1`, the inhibition constant Ki in data set [1] is 5.1 nM; in data set [2] it was 4.9 nM; in data set [5], 26 nM; at D(2) dopamine receptor, 15 nM. Further, the inhibition in data set [3] worked out at 27%. In addition, in data set [4], the inhibition at 1 µM turned out to be 82%.
On to `O=S(=O)(NCCCN1CCC(c2noc3cc(F)ccc23)CC1)c1cc2ccc(Cl)cc2s1`, for which the Ki in data set [1] amounted to 34 nM; in data set [2], 2.6 nM; in data set [5] it was 44 nM; on D(2) dopamine receptor it was 27 nM. Also, the inhibition in data set [3] was -8%. Further, the inhibition at 1 µM in data set [4] is 20%.
`O=S(=O)(NCCCN1CCN(c2nsc3ccccc23)CC1)c1cnc2ccccn12`: the Ki in data set [1] was determined as 6.3 nM; in data set [2], 12 nM; in data set [5] it was 84 nM; on D(2) dopamine receptor it was 26 nM. The inhibition in data set [3] stood at 2%. The inhibition at 1 µM in data set [4] is 6%.
Consider `O=S(=O)(NCCCCN1CCC(c2noc3cc(F)ccc23)CC1)c1cccs1`, for which the inhibitory constant (Ki) in data set [1] was 6.3 nM; in data set [2] it was 9.5 nM; in data set [5], 130 nM; at D(2) dopamine receptor it was over 1000 nM. In addition, the inhibition in data set [3] was found to be 24%. The inhibition at 1 µM in data set [4] stood at 53%.
`O=S(=O)(NCCCN1CCC(c2noc3cc(F)ccc23)CC1)c1csc2ccccc12`: the Ki in data set [1] was 0.9 nM; in data set [2], 1.6 nM; in data set [5], 13 nM; at D(2) dopamine receptor, 36 nM. Further, the inhibition in data set [3] is -2%. Moreover, the inhibition at 1 µM in data set [4] is 25%.
As for `Cc1c(S(=O)(=O)NCCCCN2CCN(c3noc4ccccc34)CC2)sc2ccc(F)cc12`, the inhibition constant Ki worked out at 2.6 nM in data set [1], 7.4 nM in data set [2], 17 nM in data set [5] and 46 nM on D(2) dopamine receptor. In addition, in data set [3], the inhibition was -4%. The inhibition at 1 µM in data set [4] turned out to be 29%.
`O=S(=O)(NCCCCN1CCN(c2noc3ccccc23)CC1)c1cnc2ccccn12`: the Ki in data set [1] was found to be 5.9 nM; in data set [2], 13 nM; in data set [5], 95 nM; at D(2) dopamine receptor, 100 nM. In data set [3], the inhibition amounted to 0%. In data set [4], the inhibition at 1 µM was 13%.
For `O=S(=O)(NCCCCN1CCN(c2nsc3ccccc23)CC1)c1ccc(F)c(Cl)c1`, the Ki in data set [1] worked out at 5.3 nM; in data set [2] it was 15 nM; in data set [5], 53 nM; at D(2) dopamine receptor, 39 nM. Further, the inhibition in data set [3] was -10%. Also, in data set [4], the inhibition at 1 µM worked out at 29%.
Take `O=S(=O)(NCCCCN1CCC(c2noc3cc(F)ccc23)CC1)c1csc2ccccc12`: the inhibition constant (Ki) in data set [1] was 4.3 nM; in data set [2], 5.7 nM; in data set [5], 13 nM; at D(2) dopamine receptor, 22 nM. Also, in data set [3], the inhibition came to 5%. Also, the inhibition at 1 µM in data set [4] is 46%.
`O=S(=O)(NCCCN1CCC(c2noc3cc(F)ccc23)CC1)c1ccc2ccccc2c1`: the Ki amounted to 0.8 nM in data set [1], 2.8 nM in data set [2], 32 nM in data set [5] and 1 nM on D(2) dopamine receptor. Further, in data set [3], the inhibition is -7%. Also, the inhibition at 1 µM in data set [4] came to 63%.
